Data from patent publication US9708314B2, “Heterocyclic amide compound” (NISSAN CHEMICAL INDUSTRIES, LTD., priority 2013, dated 2017).

Tests used:
Format in all cases: in vivo
Scirpus juncoides = test: Test Example 2: herbicidal activity, application during weed generation in submerged conditions; conditions: Eighteenth Table; application herbicide amount 320 g/ha
Method in brief: (§1)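 Post-emergence application under submerged conditions: water-diluted emulsion dosed onto the water surface (g/ha) when weeds reach one- to two-leaf stage. Soil flooded to 4 cm; greenhouse 25–30 °C. Herbicidal ratio graded in six classes, 0 (≤5%) to 5 (≥90%), at three weeks.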

Monochoria vaginalis = test: as above; conditions: Eighteenth Table; application herbicide amount 320 g/ha
Method in brief: as §1

[1] = system: Echinochloa oryzacola Vasing.; test: as above; conditions: Eighteenth Table; application herbicide amount 320 g/ha
Method in brief: as §1

[2] = system: transplanted Oryza sativa; test: Test Example 1: effect on crop, application before weed generation in submerged conditions; conditions: Application herbicide amount 320 g/ha; Seventeenth Table
Method in brief: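 Rating, on a six-step scale from almost no effect (0) to almost completely withered (5), was made three weeks after pre-emergence treatment. Treatment was surface application to flooded pots at g/ha rates, with plants kept at 25° C. to 30° C.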

Cyperus difformis = test: Test Example 3: herbicidal effect by application to foliage (Wagner pot, water depth 0.1-0.5 cm); conditions: Nineteenth Table; application to foliage; application herbicide amount 320 g/ha
Method in brief: (§2)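 Scores (0–5) reflect herbicidal ratio three weeks after a foliar spray: 0 is 5% or less, 5 is 90% or more. Plants had grown 14 days in alluvial soil pots in a 25–30 °C greenhouse before treatment with water-diluted emulsion at a set g/ha.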

[3] = system: Echinochloa crus-galli var. crus-galli; test: as above; conditions: Nineteenth Table; application to foliage; application herbicide amount 320 g/ha
Method in brief: as §2

Leptochloa chinensis = test: as above; conditions: Nineteenth Table; application to foliage; application herbicide amount 320 g/ha
Method in brief: as §2

Compound | B (Scirpus juncoides) herbicidal ratio grade (Scirpus juncoides) | C (Monochoria vaginalis) herbicidal ratio grade (Monochoria vaginalis) | A (Echinochloa oryzicola Vasing.) herbicidal ratio grade [1] | a: transplanted Oryza sativa (effect on crop grade) [2] | E (herbicidal effect grade) (Cyperus difformis) | H (herbicidal effect grade) [3] | D (herbicidal effect grade) (Leptochloa chinensis)
CC(C)Sc1nnc2c(C(=O)Nc3nnnn3C)ccc(C(F)(F)F)n12 [2-025] | 4 (Herbicidal ratio of 70% or more and less than 90%) | 5 (Herbicidal ratio of 90% or more (almost completely withered)) | 5 (Herbicidal ratio of 90% or more (almost completely withered)) | 5 (Herbicidal ratio of 90% or more (almost completely withered)) | 5 (Herbicidal ratio of 90% or more (almost completely withered)) | 5 (Herbicidal ratio of 90% or more (almost completely withered)) | 5 (Herbicidal ratio of 90% or more (almost completely withered))
CCOCc1nnc2c(C(=O)Nc3nnnn3C)ccc(C(F)(F)F)n12 [2-026] | 5 (Herbicidal ratio of 90% or more (almost completely withered)) | 4 (Herbicidal ratio of 70% or more and less than 90%) | 5 (Herbicidal ratio of 90% or more (almost completely withered)) | 4 (Herbicidal ratio of 70% or more and less than 90%) | 5 (Herbicidal ratio of 90% or more (almost completely withered)) | 5 (Herbicidal ratio of 90% or more (almost completely withered)) | 5 (Herbicidal ratio of 90% or more (almost completely withered))
Cn1nnnc1NC(=O)c1ccc(C(F)(F)F)n2c(C(C)(C)C)nnc12 [2-027] | 4 (Herbicidal ratio of 70% or more and less than 90%) | 4 (Herbicidal ratio of 70% or more and less than 90%) | 5 (Herbicidal ratio of 90% or more (almost completely withered)) | 4 (Herbicidal ratio of 70% or more and less than 90%) | 5 (Herbicidal ratio of 90% or more (almost completely withered)) | 5 (Herbicidal ratio of 90% or more (almost completely withered)) | 5 (Herbicidal ratio of 90% or more (almost completely withered))
Cn1nnnc1NC(=O)c1ccc(C(F)(F)F)n2c(C3=NOC(C)(C)C3)nnc12 [2-028] | 4 (Herbicidal ratio of 70% or more and less than 90%) | 4 (Herbicidal ratio of 70% or more and less than 90%) | 5 (Herbicidal ratio of 90% or more (almost completely withered)) | 5 (Herbicidal ratio of 90% or more (almost completely withered)) | 5 (Herbicidal ratio of 90% or more (almost completely withered)) | 5 (Herbicidal ratio of 90% or more (almost completely withered)) | 5 (Herbicidal ratio of 90% or more (almost completely withered))
CSCc1nnc2c(C(=O)Nc3nnnn3C)ccc(C(F)(F)F)n12 [2-029] | 4 (Herbicidal ratio of 70% or more and less than 90%) | 4 (Herbicidal ratio of 70% or more and less than 90%) | 5 (Herbicidal ratio of 90% or more (almost completely withered)) | 5 (Herbicidal ratio of 90% or more (almost completely withered)) | 5 (Herbicidal ratio of 90% or more (almost completely withered)) | 5 (Herbicidal ratio of 90% or more (almost completely withered)) | 5 (Herbicidal ratio of 90% or more (almost completely withered))
Cn1nnnc1NC(=O)c1ccc(C(F)(F)F)n2c(CSCC(F)(F)F)nnc12 [2-030] | 3 (Herbicidal ratio of 40% or more and less than 70%) | 4 (Herbicidal ratio of 70% or more and less than 90%) | 4 (Herbicidal ratio of 70% or more and less than 90%) | 3 (Herbicidal ratio of 40% or more and less than 70%) | 4 (Herbicidal ratio of 70% or more and less than 90%) | 4 (Herbicidal ratio of 70% or more and less than 90%) | 5 (Herbicidal ratio of 90% or more (almost completely withered))
CC[S+]([O-])c1nnc2c(C(=O)Nc3nnnn3C)ccc(C(F)(F)F)n12 (stereo not drawn) [2-031] | 4 (Herbicidal ratio of 70% or more and less than 90%) | 4 (Herbicidal ratio of 70% or more and less than 90%) | 5 (Herbicidal ratio of 90% or more (almost completely withered)) | 5 (Herbicidal ratio of 90% or more (almost completely withered)) | 5 (Herbicidal ratio of 90% or more (almost completely withered)) | 5 (Herbicidal ratio of 90% or more (almost completely withered)) | 5 (Herbicidal ratio of 90% or more (almost completely withered))
CC(C)[S+]([O-])c1nnc2c(C(=O)Nc3nnnn3C)ccc(C(F)(F)F)n12 (stereo not drawn) [2-032] | 5 (Herbicidal ratio of 90% or more (almost completely withered)) | 5 (Herbicidal ratio of 90% or more (almost completely withered)) | 5 (Herbicidal ratio of 90% or more (almost completely withered)) | 5 (Herbicidal ratio of 90% or more (almost completely withered)) | 5 (Herbicidal ratio of 90% or more (almost completely withered)) | 5 (Herbicidal ratio of 90% or more (almost completely withered)) | 5 (Herbicidal ratio of 90% or more (almost completely withered))
Cn1nnnc1NC(=O)c1ccc(C(F)(F)F)n2c(C[S+](C)[O-])nnc12 (stereo not drawn) [2-033] | 3 (Herbicidal ratio of 40% or more and less than 70%) | 4 (Herbicidal ratio of 70% or more and less than 90%) | 4 (Herbicidal ratio of 70% or more and less than 90%) | 4 (Herbicidal ratio of 70% or more and less than 90%) | 5 (Herbicidal ratio of 90% or more (almost completely withered)) | 5 (Herbicidal ratio of 90% or more (almost completely withered)) | 5 (Herbicidal ratio of 90% or more (almost completely withered))
